In patent publication US4269857A, “Control of plant-virus diseases” (Kureha Kagaku Kogyo Kabushiki Kaisha, priority 1978, dated 1981):

What was measured:
[1] = system: tobacco mosaic virus (TMV); assay: Inhibition of local lesion formation by TMV, half-leaf method on kidney bean primary leaves; assay type: in vivo, tobacco mosaic virus on kidney bean plants (variety: Otebo); details: TMV, kidney bean primary leaves, 500 ppm, painted just after inoculation, half-leaf method; for inhibition at 500 ppm: Tobacco mosaic virus, read-out: Evaluation (rate of inhibition of lesion spot formation)
Text: In the experiments one of the compounds of the present invention was formulated as in the above-mentioned Example 3 and after diluting the formulated composition with water to a predetermined concentration.
In this test, the inhibiting action of the compound of the present invention against the formation of local lesion due to the infection of tobacco mosaic virus (TMV) was examined by the half-leaf method using primary leaves of kedny been plants (variety: Otebo). TMV was inoculated on the primary leaf of kedney been plant, and just after the inoculation, the diluted liquid of the compound was painted on the half surface of the leaf and water was painted on the other half surface of the leaf. The concentration of the compounds of the present invention in the liquid was 500 ppm, and the inoculum was adjusted to form about 50 topical lesion spots on the half surface of the leaf painted with water (control). Ten leaves were usually used for the evaluation of one compound, and the rate of inhibition of lesion spot formation was derived from the following formula: [formula]
The thus obtained rates of inhibition were evaluated according to the following criteria: […]

[2] = system: cucumber mosaic virus (CMV); assay: Inhibition of CMV disease transmitted by aphids (Myzus persicae) on cucumber plants; assay type: in vivo; details: CMV via wingless aphids, 500 ppm, sprayed before aphid transmigration, one week after spray
Text: The followings are the test results of the compounds of the present invention in the plant virus disease-controlling experiments. In the experiments one of the compounds of the present invention was formulated as in the above-mentioned Example 3 and after diluting the formulated composition with water to a predetermined concentration.
The compounds evaluated as A in Test results 2 were further tested as follows:
The cucumber plants growing for two weeks after sowing in greenhouse were sprayed by each liquid containing each compound at a concentration of 500 ppm (variety of cucumber: Kinseisanto). After drying at room temperature about 3 hours, wingless aphids (Myzus persicae, Sulzer) which had been put on the suffered cucumber plant from CMV and shipped the plant sap containing CMV were transmigrated to the sprayed cucumber plants at a rate of 5 insects per plant. On the next day of the transmigration, the insects were killed by spraying dichlorvos in the plants. After one week of the spray of the compound of the present invention, the effectiveness of the compound in inhibiting the occurrence of the sign of disease due to the virus was investigated as the number of plants without the sign of disease per number of plants sprayed. As the control, water was sprayed.

CCCCCCCCCCCCNC[C@H](O)[C@@H](O)[C@H](O)[C@H](O)CO [Compound 15]
Evaluation (rate of inhibition of lesion spot formation) [1]: A (100-90)
Evaluation (number of plants without the sign of disease per number of plants sprayed) [2]: A (10/10-8/10)

CCCCCCCCCCCCNCC[C@H](O)[C@H](O)CO [Compound 55]
inhibition at 500 ppm [1]: 90 to 100%
Evaluation (number of plants without the sign of disease per number of plants sprayed) [2]: A (10/10-8/10)

CCCCCCCCCCCCCCNC[C@H](O)[C@H](O)[C@H](O)CO [Compound 49]
inhibition at 500 ppm [1]: 90 to 100%
Evaluation (number of plants without the sign of disease per number of plants sprayed) [2]: A (10/10-8/10)

CCCCCCCCCCCCNC[C@@H](O)[C@@H](O)[C@H](O)[C@H](O)CO.Cl [Compound 29, 1-deoxy-1-n-dodecylamino-D-mannitol hydrochloride]
Evaluation (rate of inhibition of lesion spot formation) [1]: A (100-90)
Evaluation (number of plants without the sign of disease per number of plants sprayed) [2]: B (7/10-5/10)

CCCCCCCCCCCCNC[C@H](O)[C@@H](O)[C@H](O)CO [Compound 52]
inhibition at 500 ppm [1]: 90 to 100%
Evaluation (number of plants without the sign of disease per number of plants sprayed) [2]: A (10/10-8/10)

CCCCCCCCCCCCNC[C@H](O)[C@@H](O)[C@H](O)[C@H](O)CO [Compound 13]
Evaluation (rate of inhibition of lesion spot formation) [1]: A (100-90)
Evaluation (number of plants without the sign of disease per number of plants sprayed) [2]: A (10/10-8/10)

CCCCCCCCCCCCNC[C@H](O)[C@@H](O)[C@H](O)[C@H](O)CO [Compound 14]
Evaluation (rate of inhibition of lesion spot formation) [1]: A (100-90)
Evaluation (number of plants without the sign of disease per number of plants sprayed) [2]: B (7/10-5/10)

CCCCCCCCCCNC[C@H](O)[C@@H](O)[C@H](O)[C@H](O)CO [Compound 10]
inhibition at 500 ppm [1]: 90 to 100%
Evaluation (number of plants without the sign of disease per number of plants sprayed) [2]: B (7/10-5/10)
